In brackets after ≈: the same amount, converted by molar mass. Several values for one entry are separate records, joined by “and”; a condition that tells them apart may be missing. Equal values may be shown once. Entries after “also recorded” stand apart in the source; their conditions may differ. Marks after values point to notes of the source that are not given here.
Experiments:
[1] = Microsomal stability assay (half-life), rat; assay type: in vitro ADME; conditions: Rat (SD) microsomes, read-out: Microsomal stability T1/2
Source text: (§1) Table 20 provides results of in vitro and in vivo pharmacokinetics performed for each of the represented compounds.

[2] = In vivo PK, IV dose, plasma; set-up: species or system Rat (SD); conditions: for Plasma concentration, mean / Plasma concentration, individual animal: IV 1 mg/kg
Source text: as §1
(§2) Tables 4 and 5 depict the summary of rat plasma sample concentrations after administration of ADG I-204. FIG. 6 provides a summary of rat plasma and brain concentrations.

[3] = Microsomal stability assay (half-life), human; assay type: in vitro ADME; conditions: Human microsomes, read-out: Microsomal stability T1/2
Source text: as §1

[4] = tested on: primary hippocampal neurons; assay: RNA-seq, acetate-induced transcription in primary hippocampal neurons; assay type: cell-based, mouse
Experimental: Alcohol and acetate have pleiotropic effects on brain circuitry and metabolism. Utilizing isolated mouse primary hippocampal neurons, the transcriptional response to supraphysiological levels of acetate (cells were cultured for one week after isolation and subsequently treated with 5 mM acetate for 24 hours) that mimics exogenous acetate influx during alcohol intake was investigated. Further, to determine the specific role of ACSS2 in transcriptional responses to acetate, a highly specific small molecule inhibitor of ACSS2 (ACSS2i ADG-205: C20H18N4O2S2, FIG. 15A) was employed.

[5] = Microsomal stability assay (half-life), mouse; assay type: in vitro ADME; conditions: Mouse (CD1) microsomes, read-out: Microsomal stability T1/2
Source text: as §1

[6] = In vivo PK, oral gavage, plasma; set-up: species or system Rat (SD); conditions: Rat, PO 5 mg/kg, BQL limit 1.00 ng/mL, listed as ADG I-205, 5 mg/kg
mice [7] = assay: Object-location memory paradigm; assay type: in vivo; conditions: recall phase, versus DMSO injected
Experimental: FIG. 29 depicts a graph showing the time spent interacting with an individual object relative to the total time spent interacting with all objects.
To assess hippocampus-dependent spatial memory, an object-location memory paradigm is used. Animals explore three different objects during training, and long-term memory is tested by re-exposure 24 hours later with one object moved to a different location. In training, control and inhibitor treated mice show no difference in exploration. During memory retrieval, control mice show increased exploration of the object that had been moved. By contrast, mice treated with an ACSS2 inhibitor are impaired in spatial object memory and display a lower discrimination index.
The conditions were blind as it relates to the injection (DMSO versus ADG-205c) and the locations of objects (those in the same location versus novel location). An online stopwatch interface was used that allowed use 3 simultaneous timer, one for each object. Each timer was stopped individually as the mouse interacted with a given object. […] Some mice remained stationary for substantial amounts of time relative to the others—some appearing apprehensive huddled in a corner, some spending time grooming.

[8] = In vivo PK, IV dose, Terminal - brain (brain availability); set-up: species or system Rat (SD); conditions: for Brain concentration, mean / Brain concentration, individual animal: IV 1 mg/kg
Experimental: Table 3 and FIG. 5 depict the brain availability of ADG I-204, ADG I-205, ADG I-206, and ADG I-207 after IV administration of 1 mg/kg dose.

[9] = Protein binding via Rapid Equilibrium Dialysis - plasma; assay type: in vitro ADME; conditions: Rat (SD) plasma, 2 μM
Source text: as §1

mice [10] = assay: Fear reconsolidation behavioral study; assay type: in vivo; conditions: 2 mg/kg immediately before and 30 min after each of 4 dosed cue-recall sessions, versus DMSO
Experimental: 3 CS-US pairings were performed: tone is 30 seconds long co-terminating with 2 second, 1 mA shock. No drug or vehicle was administered.
Subsequent to the acquisition, and following the schedule provided, above, recall and reconsolidation sessions ensued. The cage was altered in context (floor board, walls, vanilla scent). The same paradigm as acquisition was used for reconsolidation and recall exposures but no shock was delivered. The following procedure was followed: (1) 2 min habituation to box; (2) 30 sec tones; (3) 1 min it is.
Injections of ADG-205c or DMSO at dosage of 2 mg/kg are administered at the following time points: Immediately before reconsolidation/recall; and then 30 minutes following reconsolidation/recall.

[11] = Turbidity-based aqueous solubility; assay type: physicochemical; conditions: aqueous solution (composition not given), kinetic from dmso stock, read-out: highest soluble concentration
Source text: as §1

[12] = In vivo PK, oral gavage, plasma; set-up: species or system Rat (SD); conditions: SD, rat, plasma, po, 5 mg/kg
Source text: as §1, §2

H3K9ac = assay: Western blot, differentiated CAD cell lysates, H3K9ac levels; assay type: cell-based; conditions: differentiated CAD cells, DMSO = 100.00%
Source text: as §1

COCCNC(=O)Nc1ccc2nc(-c3cccs3)c(-c3cccs3)nc2c1 [ADG-205c, 1-(2,3-di(thiophen-2-yl)quinoxalin-6-yl)-3-(2-methoxyethyl)urea]
half-life at 2 μM [1]: 11.6 min | Plasma concentration, mean ([2]; Rat (SD), 8 hr, terminal, listed as ADG I-205, 1 mg/kg): 29 ng/mL | Plasma concentration, mean ([2]; Rat (SD), 24 hr, terminal, BQL limit 1.00 ng/mL (ADG I-205: 2.00 ng/mL), 1 mg/kg): 3 ng/mL | Plasma concentration, individual animal ([2]; Rat, 0.0830 hr, terminal, third animal received only 70% of the test article, listed as ADG I-205, 1 mg/kg): 2310 ng/mL and 1700 ng/mL and 865*** ng/mL | Plasma concentration, individual animal ([2]; Rat, 0.500 hr, not terminal (animals 4, 5 and 6), listed as ADG I-205, 1 mg/kg): 8520** ng/mL and 1380 ng/mL and 1470 ng/mL | Plasma concentration, individual animal ([2]; Rat, 1.00 hr, terminal, listed as ADG I-205, 1 mg/kg): 895 ng/mL and 1190 ng/mL | Plasma concentration, individual animal ([2]; Rat, 4.00 hr, terminal, BQL limit 1.00 ng/mL (ADG I-205: 2.00 ng/mL), 1 mg/kg): 187 ng/mL and 92.3 ng/mL | Plasma concentration, individual animal ([2]; Rat, 8.00 hr, terminal, BQL limit 1.00 ng/mL (ADG I-205: 2.00 ng/mL), 1 mg/kg): 27.0 ng/mL and 31.9 ng/mL | Plasma concentration, individual animal ([2]; Rat, 24.0 hr, terminal, BQL limit 1.00 ng/mL (ADG I-205: 2.00 ng/mL), 1 mg/kg): BQL | concentration at 0.083 h ([2]; SD, rat, plasma, iv, 1 mg/kg, Rat (SD), 0.083 hr, terminal, read-out: Plasma concentration, mean): 1630 ng/mL | concentration at 0.5 h ([2]; SD, rat, plasma, iv, 1 mg/kg, Rat (SD), 0.500 hr, not a terminal time point (animals 4, 5 and 6)): 3790 ng/mL | concentration at 1 h ([2]; SD, rat, plasma, iv, 1 mg/kg, Rat (SD), 1 hr, terminal, read-out: Plasma concentration, mean): 1040 ng/mL | concentration at 4 h ([2]; SD, rat, plasma, iv, 1 mg/kg, Rat (SD), 4 hr, terminal, read-out: Plasma concentration, mean): 140 ng/mL | concentration at 8 h ([2]; SD, rat, plasma, iv, 1 mg/kg, Rat (SD), 8 hr, terminal, read-out: Plasma concentration, mean): 29.1 ng/mL | concentration at 24 h ([2]; SD, rat, plasma, iv, 1 mg/kg, Rat (SD), 24 hr, terminal, BQL limit 1.00 ng/mL (ADG I-205: 2.00 ng/mL), read-out: Plasma concentration, mean): 2.63 ng/mL | concentration at 1 h ([2]; SD, rat, plasma, iv, 1 mg/kg, Rat, 1.00 hr, terminal, read-out: Plasma concentration, individual animal): 1030 ng/mL | concentration at 8 h ([2]; SD, rat, plasma, iv, 1 mg/kg, Rat, 8.00 hr, terminal, BQL limit 1.00 ng/mL (ADG I-205: 2.00 ng/mL), read-out: Plasma concentration, individual animal): 28.5 ng/mL | concentration at 24 h ([2]; SD, rat, plasma, iv, 1 mg/kg, Rat, 24.0 hr, terminal, BQL limit 1.00 ng/mL (ADG I-205: 2.00 ng/mL), read-out: Plasma concentration, individual animal): 2.63 ng/mL | half-life at 2 μM [3]: 27.8 min | Number of the 3613 acetate-induced genes that fail to be upregulated in the presence of inhibitor ([4]; 5 mM acetate, 24 hours, RNA-seq): 2107 genes | Slc17a7 induction upon acetate treatment ([4]; acetate, ACSS2 inhibited): induction was diminished | Acetate induction of ACSS2 target genes with alcohol-induced H3K9ac ([4]; hippocampal neurons ex vivo, acetate): blocks this gene induction | Acetate induction of ACSS2 target genes with alcohol-induced H3K27ac ([4]; hippocampal neurons ex vivo, acetate, listed as ACSS2i): failed to be induced; also recorded: blocks this gene induction | Regulation of acetate-induced genes by inhibitor in the absence of acetate ([4]; no acetate): not regulated | half-life at 2 μM [5]: 4.72 min | Plasma concentration, individual animal ([6]; 0.250 hr): 30.4 ng/mL and 73.0 ng/mL and 147 ng/mL | Plasma concentration, individual animal ([6]; 0.500 hr): 145 ng/mL and 298 ng/mL and 669 ng/mL | Plasma concentration, individual animal ([6]; 1.00 hr): 550 ng/mL and 906 ng/mL | Plasma concentration, individual animal ([6]; 4.00 hr): 710 ng/mL and 430 ng/mL and 938 ng/mL | Plasma concentration, individual animal ([6]; 8.00 hr): 531 ng/mL and 235 ng/mL and 297 ng/mL | Plasma concentration, individual animal ([6]; 24.0 hr): 3.51 ng/mL and 1.48 ng/mL and 4.19 ng/mL | Preference for object moved to novel location (time interacting with object relative to all objects) (mice [7]): very little preference for one object | Brain concentration, mean ([8]; Rat (SD), 4 hr, BQL limit 10.0 ng/g (204, 206), 20.0 ng/g (205, 207), listed as ADG I-205, 1 mg/kg): 23 ng/g | Brain concentration, mean ([8]; Rat (SD), 8 hr, BQL limit 10.0 ng/g (204, 206), 20.0 ng/g (205, 207)): BQL | Brain concentration, mean ([8]; Rat (SD), 24 hr, BQL limit 10.0 ng/g (204, 206), 20.0 ng/g (205, 207)): BQL | Brain concentration, individual animal ([8]; Rat, 0.0830 hr, third animal received only 70% of the test article, listed as ADG I-205, 1 mg/kg): 544 ng/g and 487 ng/g and 213*** ng/g | Brain concentration, individual animal ([8]; Rat, 1.00 hr, listed as ADG I-205, 1 mg/kg): 102 ng/g and 171 ng/g | Brain concentration, individual animal ([8]; Rat, 4.00 hr, BQL limit 10.0 ng/g (204, 206), 20.0 ng/g (205, 207), listed as ADG I-205, 1 mg/kg): BQL | Brain concentration, individual animal ([8]; Rat, 8.00 hr, BQL limit 10.0 ng/g (204, 206), 20.0 ng/g (205, 207)): BQL | Brain concentration, individual animal ([8]; Rat, 24.0 hr, BQL limit 10.0 ng/g (204, 206), 20.0 ng/g (205, 207)): BQL | concentration at 0.083 h ([8]; SD, rat, brain, iv, 1 mg/kg, Rat (SD), 0.083 hr): 415 ng/g | concentration at 1 h ([8]; SD, rat, brain, iv, 1 mg/kg, Rat (SD), 1 hr, read-out: Brain concentration, mean): 135 ng/g | concentration at 4 h ([8]; SD, rat, brain, iv, 1 mg/kg, Rat (SD), 4 hr, BQL limit 10.0 ng/g (204, 206), 20.0 ng/g (205, 207), read-out: Brain concentration, mean): 23.4 ng/g | concentration at 1 h ([8]; SD, rat, brain, iv, 1 mg/kg, Rat, 1.00 hr, read-out: Brain concentration, individual animal): 132 ng/g | concentration at 4 h ([8]; SD, rat, brain, iv, 1 mg/kg, Rat, 4.00 hr, BQL limit 10.0 ng/g (204, 206), 20.0 ng/g (205, 207), read-out: Brain concentration, individual animal): 23.4 ng/g | Protein binding, plasma: % Protein free [9]: 0.2915 % Protein free | Fear response (freezing) after reconsolidation sessions (mice [10]): observable reduced fear response | solubility [11]: 5 µM (≈ 2.05 µg/mL) | concentration at 0.25 h ([12]; Rat (SD), 0.25 hr, BQL = below quantitation limit (1.00 ng/mL), read-out: Plasma concentration, mean): 83.5 ng/mL | concentration at 0.5 h ([12]; Rat (SD), 0.5 hr, BQL = below quantitation limit (1.00 ng/mL), read-out: Plasma concentration, mean): 371 ng/mL | concentration at 1 h ([12]; Rat (SD), 1 hr, BQL = below quantitation limit (1.00 ng/mL), read-out: Plasma concentration, mean): 641 ng/mL | concentration at 4 h ([12]; Rat (SD), 4 hr, BQL = below quantitation limit (1.00 ng/mL)): 693 ng/mL | concentration at 8 h ([12]; Rat (SD), 8 hr, BQL = below quantitation limit (1.00 ng/mL), read-out: Plasma concentration, mean): 354 ng/mL | concentration at 24 h ([12]; Rat (SD), 24 hr, BQL = below quantitation limit (1.00 ng/mL), read-out: Plasma concentration, mean): 3.06 ng/mL | concentration at 1 h ([12]; Rat, 1.00 hr, BQL limit 1.00 ng/mL, read-out: Plasma concentration, individual animal): 466 ng/mL | H3K9ac levels normalized to H3 and DMSO control (H3K9ac; 1 uM): 21.62% | H3K9ac levels normalized to H3 and DMSO control (H3K9ac; 5 uM): 17.18% | H3K9ac levels normalized to H3 and DMSO control (H3K9ac; 10 uM): 14.26% | H3K9ac levels normalized to H3 and DMSO control (H3K9ac; 20 uM): 21.52% | H3K9ac levels normalized to H3 and DMSO control (H3K9ac; 50 uM): 29.67% | H3K9ac levels normalized to H3 and DMSO control (H3K9ac; 100 uM): 16.42%
